One block for each molecule: values may come before it.
Tests used:
[1] = Hydration of the solid under air exposure; details: form B from methanol solutions evaporated in an atomizer at room temperature
[2] = Hydrolytic degradation in mixtures of ketonic or alcoholic solvents and water; format: physicochemical; details: forms fosinoprilate, increases with time, higher temperature and higher water content
Excerpt: This hydrolytic degradation increases with time and with higher temperature and higher water content of the solvent.

[3] = polymorph A versus polymorph B; as stated in EP-B-0442378; cited from earlier work

Compound: CCC(=O)O[C@@H](O[P@](=O)(CCCCc1ccccc1)CC(=O)N1C[C@H](C2CCCCC2)C[C@H]1C(=O)[O-])C(C)C.[Na+] [form B, sodium salt of fosinopril]
- hydration under air exposure [1]: spontaneously hydrated under air exposure

- hydrolytic stability in solution [2]: undergoes hydrolysis
Compound: CCC(=O)O[C@@H](O[P@](=O)(CCCCc1ccccc1)CC(=O)N1C[C@H](C2CCCCC2)C[C@H]1C(=O)[O-])C(C)C.[Na+] [sodium fosinopril, sodium salt of fosinopril]

Compound: CCC(=O)O[C@@H](O[P@](=O)(CCCCc1ccccc1)CC(=O)N1C[C@H](C2CCCCC2)C[C@H]1C(=O)[O-])C(C)C.[Na+] [polymorph A, sodium salt of fosinopril]
- relative thermodynamic stability of polymorphs [3]: more stable one from the thermodynamic point of view
